In US20100152188A1, “Novel Heterocyclic Compounds” (priority 2005, published 2010):
Like-named read-outs stand apart in the source and are kept apart here.

How the values were obtained:
MDAMB-231/U 251 = assay: Anti-cancer screen (MTT), MDAMB-231/U 251; type: cell-based; details: for CC50: read-out: MDAMB-231/U 251 LC50
Description: (§1) Experimental drugs are screened for anti-cancer activity in three cell lines for their GI50, TGI and LC50 values (using five concentrations for each compound). The cell lines are maintained in DMEM containing 10% fetal bovine serum. 96 well micro titer plates are inoculated with cells in 100 µL for 24 hours at 37° C., 5% CO2, 95% air and 100% relative humidity. 5000 HCT 116 cells/well, 5000 NCIH 460 cells/well and 5000 U251 cells/well are plated. A separate plate with these cell lines is also inoculated to determine cell viability before the addition of the compounds (T0).
(§2) Following 24-hour incubation, experimental drugs are added to the 96 well plates. Each plate contains one of the above cell lines and the following in triplicate: five different concentrations (0.01, 0.1, 1, 10 and 100 µM) of four different compounds, appropriate dilutions of a cytotoxic standard and control (untreated) wells. Compounds are dissolved in DMSO to make 20 mM stock solutions on the day of drug addition and frozen at −20° C. Serial dilutions of these 20 mM stock solutions are made in complete growth medium such that 100 µL of these drug solutions in medium, of final concentrations equaling 0.01, 0.1, 1, 10 and 100 µM can be added to the cells in triplicate. Standard drugs whose anti-cancer activity has been well documented and which are regularly used are doxorubicin and SAHA.
(§3) For T0 measurement, 24 hours after seeding the cells, 10 µL of 3-(4,5-Dimethyl-2-thiazolyl)-2,5-diphenyl-2H-tetrazolium (MTT) solution per well is added and incubation carried out for 3 hours at 37° C., 5% CO2, 95% air and 100% relative humidity, protected from light. Cells incubated with compounds for 48 hours are treated similarly except with the addition of 20 µl MTT solution per well and a subsequent incubation under the same conditions. After 3 hours of MTT incubation, well contents are aspirated carefully followed by addition of 150 µL DMSO per well. Plates are agitated to ensure solution of the formazan crystals in DMSO and absorbance read at 570 nm.
(§4) Percent growth is calculated for each compound's concentration relative to the control and zero measurement wells (T0; viability right before compound addition). If a test well's O.D. value is greater than the T0 measurement for that cell line
(§5) %Growth=(test−zero)/(control−zero)×100
(§6) If a test well's O.D. value is lower than the T0 measurement for that cell line, then,
(§7) %Growth=(test−zero)/zero×100

HCT116 = assay: Anti-cancer screen (MTT), HCT116; type: cell-based; details: Homo sapiens, HCT-116, 48 hours with compound, tested at 0.01-100 µM
Description: as §1, §2, §3, §4, §5, §6, §7

NCIH460 = assay: Anti-cancer screen (MTT), NCIH460; type: cell-based; details: Homo sapiens, NCI-H460, 48 hours with compound, tested at 0.01-100 µM
Description: as §1, §2, §3, §4, §5, §6, §7

[1] = system: NCIH460, HCT116, MDAMB-231/U 251; assay: Anti-cancer screen, mean GI50 over the cell lines; type: cell-based; details: in µM
Description: as §1, §2, §3, §4

HDAC = HDAC inhibition; type: biochemical; details: for HDAC Inhibition 1 μM: compound at 1 μM; for HDAC Inhibition 10 μM: compound at 10 μM
[2] = 48 hours with compound, MTT, tested at 0.01-100 µM

SMILES | CC50 (MDAMB-231/U 251; 48 h) [µM] | GI50 (MDAMB-231/U 251; [2]) [µM] | IC (TGI) (MDAMB-231/U 251; [2]) [µM] | GI50 (HCT116) [µM] | IC (TGI) (HCT116) [µM] | LC50 (concentration giving 50% net cell kill relative to T0) (HCT116) [µM] | GI50 (NCIH460) [µM] | IC (TGI) (NCIH460) [µM] | LC50 (NCIH460) [µM] | Mean GI50 [1] | HDAC Inhibition 1 μM (HDAC) | HDAC Inhibition 10 μM (HDAC) | CC50 (MDAMB-231/U 251; [2]) [µM] | CC50 (HCT116; read-out: HCT116 LC50) [µM]
O=C(Cc1csc(NC(=O)OCc2cccnc2)n1)NO [Example 1, pyridin-3-ylmethyl{4-[2-(hydroxyamino)-2-oxoethyl]-1,3-thiazol-2-yl}carbamate] | > 100 | 1 | > 100 | 0.25 | 4 | > 100 | 0.01 | 0.5 | > 100 | 0.4 | 1.3 | 31.5 |  | 
O=C(Cc1csc(NC(=O)OCc2cccs2)n1)NO [Example 2, 2-Thienylmethyl{4-[2-(hydroxyamino)-2-oxoethyl]-1,3-thiazol-2-yl}carbamate] | > 100 | > 100 | > 100 | > 100 | > 100 | > 100 | > 100 | > 100 | > 100 | >100 | 0.8 | 22.42 |  | 
CNC(=O)c1ccc(CNC(=O)OCC2COc3ccccc3O2)cc1 (stereo not shown) [Example 42, 2,3-Dihydro-1,4-benzodioxin-2-ylmethyl{4-[(methylamino)carbonyl]benzyl}carbamate] | > 100 | 0.7 | > 100 | > 100 | > 100 | > 100 | > 100 | > 100 | > 100 | >100 |  |  |  | 
CONC(=O)c1ccc(CNC(=O)OCc2c(F)c(F)c(F)c(F)c2F)cc1 [Example 44, Pentafluorobenzyl(4-{[methoxyamino]carbonyl}benzyl)carbamate] | > 100 | 5 | 9 | 21 | > 100 | > 100 | 42 | > 100 | > 100 | 22.67 |  |  |  | 
O=C(NCc1ccc(C(=O)Nc2nnc(C3CC3)s2)cc1)OCc1c(F)c(F)c(F)c(F)c1F [Example 56, Pentafluorobenzyl(4-{[(5-cyclopropyl-1,3,4-thiadiazol-2-yl)amino]carbonyl}benzyl)carbamate] | 65 | 0.8 | 7 | 0.5 | > 100 | > 100 | 0.3 | 0.8 | > 100 | 0.5 |  |  |  | 
O=C(NCc1ccc(C(=O)NCCO)cc1)OCc1cccs1 [Example 61, 2-Thienylmethyl(4-{[(2-hydroxyethyl)amino]carbonyl}benzyl)carbamate] | > 100 | 65 | > 100 | > 100 | > 100 | > 100 | > 100 | > 100 | > 100 | >100 |  |  |  | 
O=C(NCc1ccc(C(=O)N2CCN(Cc3ccc4c(c3)OCO4)CC2)cc1)OCc1c(F)cc(F)cc1F [Example 62, 2,4,6-Trifluorobenzyl(4-{[4-(1,3-benzodioxol-5-ylmethyl)piperazin-1-yl]carbonyl}benzyl)carbamate] | > 100 | 2 | 10 | 3 | > 100 | > 100 | 0.1 | 8.5 | > 100 | 1.7 |  |  |  | 
O=C(NCc1ccc(C(=O)Nc2ncc([N+](=O)[O-])s2)cc1)OCc1cccs1 [Example 69, 2-thienylmethyl(4-{[(5-nitro-1,3-thiazol-2yl)amino]carbonyl}benzyl)carbamate] |  |  |  |  |  |  |  |  |  | 40.33 | 13.14 | 12.38 |  | 
O=C(NCc1ccc(C(=O)NOCc2ccccc2)cc1)OCc1cccs1 [Example 73, 2-Thienylmethyl(4-{[(benzyloxy)amino]carbonyl}benzyl)carbamate] |  |  |  |  |  |  |  |  |  | >100 | 6.60 | 12.42 |  | 
CC(=O)N(O)C(=O)Cc1csc(NC(=O)OCc2cc(Br)cs2)n1 [Example 79, (4-Bromo-2-thienyl)methyl(4-{2-[acetyl(hydroxy)amino]-2-oxoethyl}-1,3-thiazol-2-yl)carbamate] |  | 0.4 | 52 | 30 | 65 |  | 30 | 74 | > 100 | 20.1 |  |  | 100 | 95
COC(=O)ON(C)C(=O)c1ccc(CNC(=O)OCc2cccs2)cc1 [Example 85, 2-Thienylmethyl[4-({[(methoxycarbonyl)oxy](methyl)amino}carbonyl)benzyl]carbamate] |  |  |  |  |  |  |  |  |  | 10.67 | 3.18 | 7.89 |  | 
COC(=O)N(OCc1ccccc1)C(=O)c1ccc(CNC(=O)OCc2cccs2)cc1 [Example 86, 2-Thienylmethyl[4-({(N-benzyloxy)(N-methoxycarbonyl)amino}carbonyl)benzyl]carbamate] |  |  |  |  |  |  |  |  |  | >100 | 5.98 | −10.22 |  | 
O=C(CCCNC(=O)Cc1csc(NC(=O)OCc2cccnc2)n1)NO [Example 88, Pyridin-3-ylmethyl[4-(2-{[4-(hydroxyamino)-4-oxobutyl]amino}-2-oxoethyl)-1,3-thiazol-2-yl]carbamate] | > 100 | 6 | > 100 | > 100 | > 100 | > 100 | > 100 | > 100 | > 100 | >100 |  |  |  | 
O=C(CCCNC(=O)Cc1csc(NC(=O)OCc2c(F)c(F)c(F)c(F)c2F)n1)NO [Example 92, Pentafluorobenzyl[4-(2-{[4-(hydroxyamino)-4-oxobutyl]amino}-2-oxoethyl)-1,3-thiazol-2-yl]carbamate] | > 100 | 30 | 50 | > 100 | > 100 | > 100 | > 100 | > 100 | > 100 | >100 |  |  |  | 
O=C(CCCCCNC(=O)Cc1csc(NC(=O)OCc2c(F)c(F)c(F)c(F)c2F)n1)NO [Example 94, Pentafluorobenzyl[4-(2-{[6-(hydroxyamino)-6-oxohexyl]amino}-2-oxoethyl)-1,3-thiazol-2-yl]carbamate] | 84 | 19 | 50 | 23 | 62 | 84 | 35 | 67 | > 100 | 25.66 |  |  |  | 
O=C(CCCCCNC(=O)Cc1csc(NC(=O)OCc2ccncc2)n1)NO [Example 98, Pyridin-4-ylmethyl[4-(2-{[6-(hydroxyamino)-6-oxohexyl]amino}-2-oxoethyl)-1,3-thiazol-2-yl]carbamate] |  |  |  |  |  |  |  |  |  | >100 | 94.01 | 129.59 |  | 
O=C(CCCCCNC(=O)c1ccc(CNC(=O)OCc2cccs2)cc1)Nc1nnc(C2CC2)s1 [Example 103] | 85 | 0.4 | 18 | 40 | > 100 | > 100 | 60 | > 100 | > 100 | 33.5 |  |  |  | 
N#Cc1ccc(NC(=O)Nc2cccc(NC(=O)c3ccc(CNC(=O)OCc4cccs4)cc3)c2)cc1 [Example 105, 2-Thienylmethyl[4-({[3-({[(4-cyanophenyl)amino]carbonyl}amino)phenyl]amino}carbonyl)benzyl]carbamate] |  |  |  |  |  |  |  |  |  | 6.73 | 11.02 | 12.74 |  | 
